{"source": "patent US11975071B2", "about": "“Tumor ablation using low-intensity ultrasound and sound excitable drug” (CORNELL UNIVERSITY, priority 2018, dated 2024)", "key": {"[1]": {"system": "MDA-MB-468 cells", "assay": "Cell based ROS scavenging assay", "details": "then RB4 10 μM 1 h, US 1 MHz, 1 W/cm^2, 30 s, MTS one day later; for protective effect of ROS scavenger: scavenger pretreatment 30 min", "procedure": "Ceil based ROS scavenging assay: MDA-MB-468 cells (5×10^4) were treated with free radical scavengers, L-histidine (10 mM), D-mannitol (100 mM), N-acetyl cysteine (NAC, 0.5 mM), and superoxide dismutase (SOD, 100 μg/mL) for 30 minutes. The treated cells were then incubated with fresh media containing RB4 (10 μM) for an hour. After incubation, the wells were insonated (1 MHz, 1 W/cm^2, 30 sec, 100% DC) as described above. One day later, the cell's viability was assessed using the MTS solution."}, "[2]": {"assay": "Absorption and emission spectra", "format": "physicochemical"}, "[3]": {"system": "MDA-MB-468 xenograft tumor", "assay": "In vivo SMRT effect with intra-tumoral injected RB4, histochemical analysis", "parameters": "species or system BALB/c Nu/Nu female nude mice", "details": "two days after treatment", "procedure": "(§1) In vivo SMRT effect with intra-tumoral injected RB4: MDA-MB-468 cells (10^7, 0.1 mL PBS) were subcutaneously inoculated into both flanks of BALB/c Nu/Nu female nude mice (5-6 weeks). The RB4 injections and ultrasound therapies were performed when the tumors had grown to approximately 4-5 mm in diameter, 20-22 days after inoculation. The tumors were treated with RB4 (10 μM, 50 μl) only, ultrasound only (1 MHz, 1 W cm2, 100% DC, 3 minutes), and a RB4-ultrasound combination (n=5), Under isoflurane anesthesia, RB4 was directly injected to the tumors of the mice. The ultrasound treatment was then performed immediately after the injection of RB4, with same transducer size. The same RB4-ultrasound treatment was performed on the thigh muscles of the mice. Histochemical analysis: Tumors and muscle tissue were harvested 2 days after therapy and the specimens were fixed in 10% formalin, cut in half, and embedded in paraffin. The paraffin sections (7 μm thick) were stained with hematoxylin-eosin (H&E). ImageJ 1.48 was used to measure the size of whole tumor and necrotic areas in the tumors."}, "[4]": {"system": "HT-1080", "assay": "Toxicity of RB4 to cells (IC50)", "format": "cell-based", "details": "Homo sapiens, RB4 alone"}, "[5]": {"system": "MDA-MB-468 breast cancer xenograft tumor", "assay": "In vivo SMRT effect using preloaded tumor cells", "procedure": "In vivo sono-membrane rupture therapy (SMRT) effect using preloaded tumor cells: MDA-MB-468 cells were suspended in PBS or RB4 (10 μM) in PBS for 1 day. The cells (5×10^6, 0.1 mL) were subcutaneously injected into both flanks. The left tumors, which were only treated with PBS, were the internal control; while the right tumors were treated with RB4 (10 μM) only, ultrasound only (1 MHz, 1 W/cm^2, 100% DC, 3 minutes), or an RB4-ultrasound combination (n=7). The transducer size was 0.75 cm^2. Tumor size was measured with slide calipers on days 7,10, 14,17,21,24, 28, and 36."}, "[6]": {"system": "MDA-MB-468", "assay": "Toxicity of RB4 to cells (IC50)", "format": "cell-based", "details": "Homo sapiens, RB4 alone"}, "[7]": {"assay": "Chemical ROS assay (DCFH-DA) in solution under insonation", "details": "RB4 + DCFH solution insonated with different ultrasound powers, 30 s", "procedure": "Chemical ROS assay: To study the insonation induced ROS generation in solution, RB4 was tested using a modified 2′, 7′-dichlorofluorescin diacetate (DCFH-DA) assay. DCFH-DA (1 ml, 1 mM in MeOH) was hydrolyzed in NaOH aqueous solution (0.01N, 4 mL) at RT for 30 minutes to yield anon-fluorescent DCFH intermediate. The solution was neutralized with 20 mL of NaH2PO4 (25 mM) and shielded with aluminum foil. The final solution of DCFH was around 40 μM. RB4 (1.0 mg) was dissolved in DMSO (1 mL) and then diluted with water into a 20 μM solution. The RB4 solution (20 μM, 10 mL) was mixed with a DCFH solution (40 μM, 10 mL) as the test solution. The test solution (0.5 mL) was placed into each well of a 24-well plate. The DCFH solution without RB4 was included as a background control. The plates were treated with ultrasound (0.4-1.2 watt/cm^2) one well by one well for 30 seconds: and the insonated wells were then checked using a fluorescence plate reader, ex 485 nm/em 520 nm."}, "[8]": {"system": "MDA-MB-468 cells", "assay": "Mechanistic study of death process by flow cytometry (Annexin V / propidium iodide)", "format": "cell-based", "details": "RB4 10 μM + US 1 MHz, 1 W/cm^2, 30 s; one day after treatment", "procedure": "Mechanistic study of death process by flow cytometry: MDA-MB-468 cells (5×10^4) were incubated in complete media with or without 10 μM RB4 for 1 hour prior to ultrasound treatment. Then the plates were insonated at 1 MHz, 1 W/cm^2, 30 sec, 100% duty cycle. Following treatment, cells were re-incubated for 1 day, 4 groups of cells (Control, RB4 alone, ultrasound alone, and RB4 combined with ultrasound) were collected and washed twice with pre-cooled PBS. Cells were stained with FITC-conjugated Annexin-Y and propidium iodide for 15 minutes as per the manufacture's instructions, and then analyzed by flow cytometry. The percentage of dead cells and those undergoing apoptosis were analyzed using flow ‘cytometry’ analysis software."}, "[9]": {"system": "thigh muscle (normal muscle tissue)", "assay": "Same RB4-ultrasound treatment on thigh muscle, histochemical analysis", "format": "in vivo, BALB/c Nu/Nu female nude mice", "details": "RB4 + US 1 MHz, 1 W/cm^2, 3 min applied to thigh muscle; two days after treatment", "procedure": "as §1"}, "[10]": {"system": "HT1080, fibrosarcoma", "assay": "Sono-sensitivity of RB4 in a second cell line", "format": "cell-based", "details": "RB4 + ultrasound"}, "[11]": {"system": "MDA-MB-468 cells", "assay": "Sonotoxicity with RB4: microscopy and MTS viability assay at 24 hours", "format": "cell-based", "procedure": "Sonotoxicity with RB4: MDA-MB-468 ceils (5×10^4) in 24 well plates were incubated in complete media with 10 μM RB4 for 1 hour prior to the ultrasound treatment. The plates were then placed on a pre-cut gel pad (2 cm×3 cm) with multipurpose ultrasound gel over a mounted handheld ultrasound transducer (5 cm^2) at 1 MHz, 1 W/cm^2 for 30 s, 100% DC. Cells were checked under an EVOS® FL Auto Cell Imaging system microscope. Cell viability at 24 hours was quantitated using an MTS assay. The plate was incubated at 37° C. for 4 hours. Absorbance was measured at 490 nm using a microplate reader."}}, "note": "Entries after “also recorded” stand apart in the source; their conditions may differ."}
{"compound": "OC[C@@H](O)[C@@H](O)[C@H](O)[C@H](O)CO", "note": "[D-mannitol]", "values": [{"measurement": "protective effect of ROS scavenger", "setting": "[1]", "value": "none, with the exception of NAC, showed any protective effects"}]}
{"compound": "N[C@@H](Cc1c[nH]cn1)C(=O)O", "note": "[L-histidine]", "values": [{"measurement": "protective effect of ROS scavenger", "setting": "[1]", "value": "none, with the exception of NAC, showed any protective effects"}]}
{"compound": "CC(=O)N[C@@H](CS)C(=O)O", "note": "[NAC, N-acetyl cysteine]", "values": [{"measurement": "fraction of cells rescued from RB4 and ultrasound combination treatment", "setting": "[1]; scavenger pretreatment 30 min (NAC 0.5 mM)", "value": "~20", "unit": "%"}, {"measurement": "protective effect of ROS scavenger", "setting": "[1]", "value": "able to rescue a fraction of cells"}]}
{"compound": "O=C(NCCO)c1c(Cl)c(Cl)c(Cl)c(Cl)c1-c1c2cc(I)c(=O)c(I)c-2oc2c(I)c(O)c(I)cc12", "note": "[RB4, 2,3,4,5-tetrachloro-6-(6-hydroxy-2,4,5,7-tetraiodo-3-oxo-3H-xanthen-9-yl)-N-(2-hydroxyethyl)-benzamide]", "values": [{"measurement": "absorption and emission (in words)", "setting": "[2]", "value": "neither absorption nor emission above 400 nm"}, {"measurement": "necrotic area", "setting": "[3]; RB4 50 μL, 10 μM intratumoral + US 1 MHz, 1 W/cm^2, 3 min", "value": "~40", "unit": "%"}, {"measurement": "necrosis on HE staining (in words)", "setting": "[3]; RB4 50 μl, 10 μM intratumoral + US 1 MHz, 1 W/cm^2, 3 min", "value": "A large necrotic area"}, {"measurement": "tissue damage on HE staining (in words)", "setting": "[3]; RB4 alone 50 μl, 10 μM intratumoral", "value": "Little effect; also recorded: little tissue damage"}, {"measurement": "IC50", "setting": "[4]", "value": 157, "unit": "µM"}, {"measurement": "tumor growth inhibition (in words)", "setting": "[5]; RB4 10 μM + US 1 MHz, 1 W/cm^2, 3 min, N=7", "value": "significant growth arrest"}, {"measurement": "average tumor size relative to control untreated tumor", "setting": "[5]; RB4 10 μM preloaded cells + US 1 MHz, 1 W/cm^2, 3 min, up to 36 days", "value": "about 20%"}, {"measurement": "tumor growth inhibition (in words)", "setting": "[5]; RB4 alone 10 μM", "value": "about the same as the untreated group; also recorded: no appreciable inhibition effect"}, {"measurement": "growth rate ratio of treated vs. untreated tumors", "setting": "[5]; RB4 alone (cells pre-incubated with 10 μM for 1 day), up to 36 days", "value": "≈ 1"}, {"measurement": "IC50", "setting": "[6]", "value": 71, "unit": "µM"}, {"measurement": "ROS level of RB4 solution", "setting": "[7]", "value": "not significantly different from the background level"}, {"measurement": "PI positive cells", "setting": "[8]", "value": 3, "unit": "%"}, {"measurement": "annexin positive cells", "setting": "[8]", "value": 8, "unit": "%"}, {"measurement": "annexin/PI double positive cells", "setting": "[8]", "value": 36, "unit": "%"}, {"measurement": "damage to normal muscle tissue", "setting": "[9]", "value": "maintained their normal structures without damage; also recorded: no damaged cells were found"}, {"measurement": "cells killed", "setting": "[10]", "value": 95, "unit": "%"}, {"measurement": "cells killed", "setting": "[11]; RB4 10 μM 60 min + ultrasound 1 MHz, 1 W/cm^2, 30 s, viability one day later", "value": "over 90%"}, {"measurement": "cell damage in microscopic images", "setting": "[11]; RB4 10 μM + ultrasound 1 MHz, 1 W/cm^2, 30 s", "value": "significant damage"}, {"measurement": "cell viability", "setting": "[11]; RB4 alone 10 μM, 60 min, no ultrasound, MTS one day later", "value": "> 80", "unit": "% viable"}, {"measurement": "cell damage in microscopic images", "setting": "[11]; RB4 alone 10 μM, versus untreated", "value": "Little difference"}]}
{"compound": "O=C1OC2(c3cc(I)c(O)c(I)c3Oc3c2cc(I)c(O)c3I)c2c(Cl)c(Cl)c(Cl)c(Cl)c21", "note": "[RB, Rose Bengal]", "values": [{"measurement": "absorption maximum", "setting": "[2]", "value": 549, "unit": "nm"}, {"measurement": "emission maximum", "setting": "[2]", "value": 565, "unit": "nm"}]}
{"compound": "superoxide dismutase", "values": [{"measurement": "protective effect of ROS scavenger", "setting": "[1]", "value": "none, with the exception of NAC, showed any protective effects"}]}
